What was measured:
Assay in all cases: SelectScreen ZLYTE
Type in all cases: biochemical
Details in all cases: INX-0315 at 100nM
[1] = target: T1, TEK (TIE2) Y897S (Homo sapiens, UniProt Q02763, Y897S)
T1 construct: purchased Thermo Fisher Scientific SelectScreen (plus Nanosyn / Reaction Biology for CDK/cyclin lines)
From the text: (§1) INX-315 was first evaluated in the SelectScreen Biochemical Kinase Profiling at Thermo Fisher Scientific (Madison, WI). The primary screen consisted of INX-315 dosed at a single concentration of 100 nmol/L in 1% DMSO across each platform within the SelectScreen array of assays, LanthaScreen Eu Kinase Binding Assay; AdaptaScreen; and Z'LyteScreen using preestablished conditions at Thermo Fisher Scientific as shown in Supplementary Table S2. […] The follow-up screen consisted of 10-point dose–response curves for INX-315 from 1 µmol/L to 0.0495 nmol/L.

[2] = target: T2, PDGFRA V561D (Homo sapiens, UniProt P16234, V561D)
T2 construct: purchased Thermo Fisher Scientific SelectScreen (plus Nanosyn / Reaction Biology for CDK/cyclin lines)
From the text: as §1

[3] = target: T3, STK24 (MST3) (Homo sapiens, UniProt Q9Y6E0)
T3 construct: purchased Thermo Fisher Scientific SelectScreen (plus Nanosyn / Reaction Biology for CDK/cyclin lines)
From the text: as §1

[4] = target: T4, JAK1 (Homo sapiens, UniProt P23458)
T4 construct: purchased Thermo Fisher Scientific SelectScreen (plus Nanosyn / Reaction Biology for CDK/cyclin lines)
From the text: as §1

[5] = target: T5, RET (Homo sapiens, UniProt P07949)
T5 construct: purchased Thermo Fisher Scientific SelectScreen (plus Nanosyn / Reaction Biology for CDK/cyclin lines)
From the text: as §1

[6] = target: T6, MAPKAPK2 (Homo sapiens, UniProt P49137)
T6 construct: purchased Thermo Fisher Scientific SelectScreen (plus Nanosyn / Reaction Biology for CDK/cyclin lines)
From the text: as §1

[7] = target: T7, LTK (TYK1) (Homo sapiens, UniProt P29376)
T7 construct: purchased Thermo Fisher Scientific SelectScreen (plus Nanosyn / Reaction Biology for CDK/cyclin lines)
From the text: as §1

[8] = target: T8, NEK4 (Homo sapiens, UniProt P51957)
T8 construct: purchased Thermo Fisher Scientific SelectScreen (plus Nanosyn / Reaction Biology for CDK/cyclin lines)
T8 sequence (P51957 whole entry): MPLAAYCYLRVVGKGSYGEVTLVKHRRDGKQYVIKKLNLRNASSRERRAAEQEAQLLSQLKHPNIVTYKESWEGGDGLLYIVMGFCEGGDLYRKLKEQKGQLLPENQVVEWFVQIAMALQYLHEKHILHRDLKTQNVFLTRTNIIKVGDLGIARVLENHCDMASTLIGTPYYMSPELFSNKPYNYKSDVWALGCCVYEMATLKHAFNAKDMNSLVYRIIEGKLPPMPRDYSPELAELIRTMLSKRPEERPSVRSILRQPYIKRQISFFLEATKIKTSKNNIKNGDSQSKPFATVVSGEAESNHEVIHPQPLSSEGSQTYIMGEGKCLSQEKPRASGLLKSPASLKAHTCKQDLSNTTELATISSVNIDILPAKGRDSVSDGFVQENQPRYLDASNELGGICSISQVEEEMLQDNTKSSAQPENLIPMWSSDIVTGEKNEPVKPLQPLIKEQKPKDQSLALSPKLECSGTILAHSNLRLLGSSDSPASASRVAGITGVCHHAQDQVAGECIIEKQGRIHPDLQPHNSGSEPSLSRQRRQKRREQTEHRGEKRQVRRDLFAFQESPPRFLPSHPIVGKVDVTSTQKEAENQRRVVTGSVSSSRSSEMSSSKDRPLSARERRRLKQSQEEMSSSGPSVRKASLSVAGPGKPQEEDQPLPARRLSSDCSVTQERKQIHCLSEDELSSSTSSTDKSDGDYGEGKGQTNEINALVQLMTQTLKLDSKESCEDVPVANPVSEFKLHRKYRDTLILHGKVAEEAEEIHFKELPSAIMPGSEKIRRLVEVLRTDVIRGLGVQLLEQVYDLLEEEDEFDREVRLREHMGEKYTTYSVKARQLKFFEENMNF
From the text: as §1

[9] = target: T9, PDGFRB (PDGFR beta) (Homo sapiens, UniProt P09619)
T9 construct: purchased Thermo Fisher Scientific SelectScreen (plus Nanosyn / Reaction Biology for CDK/cyclin lines)
From the text: as §1

[10] = target: T10, HIPK3 (YAK1) (Homo sapiens, UniProt Q9H422)
T10 construct: purchased Thermo Fisher Scientific SelectScreen (plus Nanosyn / Reaction Biology for CDK/cyclin lines)
From the text: as §1

[11] = target: T11, DCAMKL2 (DCK2) (Homo sapiens, UniProt Q8N568)
T11 construct: purchased Thermo Fisher Scientific SelectScreen (plus Nanosyn / Reaction Biology for CDK/cyclin lines)
From the text: as §1

[12] = target: T12, AMPK (A2/B1/G2) (Homo sapiens, UniProt P54646)
T12 construct: purchased Thermo Fisher Scientific SelectScreen (plus Nanosyn / Reaction Biology for CDK/cyclin lines)
From the text: as §1

[13] = target: T13, EPHB3 (Homo sapiens, UniProt P54753)
T13 construct: purchased Thermo Fisher Scientific SelectScreen (plus Nanosyn / Reaction Biology for CDK/cyclin lines)
From the text: as §1

[14] = target: T14, MARK4 (Homo sapiens, UniProt Q96L34)
T14 construct: purchased Thermo Fisher Scientific SelectScreen (plus Nanosyn / Reaction Biology for CDK/cyclin lines)
From the text: as §1

[15] = target: T15, SRPK2 (Homo sapiens, UniProt P78362)
T15 construct: purchased Thermo Fisher Scientific SelectScreen (plus Nanosyn / Reaction Biology for CDK/cyclin lines)
From the text: as §1

[16] = target: T16, PAK1 (Homo sapiens, UniProt Q13153)
T16 construct: purchased Thermo Fisher Scientific SelectScreen (plus Nanosyn / Reaction Biology for CDK/cyclin lines)
From the text: as §1

[17] = target: T17, SRMS (Srm) (Homo sapiens, UniProt Q9H3Y6)
T17 construct: purchased Thermo Fisher Scientific SelectScreen (plus Nanosyn / Reaction Biology for CDK/cyclin lines)
From the text: as §1

[18] = target: T18, MET (cMet) Y1235D (Homo sapiens, UniProt P08581, Y1235D)
T18 construct: purchased Thermo Fisher Scientific SelectScreen (plus Nanosyn / Reaction Biology for CDK/cyclin lines)
From the text: as §1

[19] = target: T19, DNA-PK (Homo sapiens, UniProt P78527)
T19 construct: purchased Thermo Fisher Scientific SelectScreen (plus Nanosyn / Reaction Biology for CDK/cyclin lines)
From the text: as §1

[20] = target: T20, MAP4K4 (HGK) (Homo sapiens, UniProt O95819)
T20 construct: purchased Thermo Fisher Scientific SelectScreen (plus Nanosyn / Reaction Biology for CDK/cyclin lines)
From the text: as §1

[21] = target: T21, ADRBK2 (GRK3) (Homo sapiens, UniProt P35626)
T21 construct: purchased Thermo Fisher Scientific SelectScreen (plus Nanosyn / Reaction Biology for CDK/cyclin lines)
From the text: as §1

[22] = target: T22, FGR (Homo sapiens, UniProt P09769)
T22 construct: purchased Thermo Fisher Scientific SelectScreen (plus Nanosyn / Reaction Biology for CDK/cyclin lines)
From the text: as §1

[23] = target: T23, IGF1R (Homo sapiens, UniProt P08069)
T23 construct: purchased Thermo Fisher Scientific SelectScreen (plus Nanosyn / Reaction Biology for CDK/cyclin lines)
T23 sequence (P08069 31-1367): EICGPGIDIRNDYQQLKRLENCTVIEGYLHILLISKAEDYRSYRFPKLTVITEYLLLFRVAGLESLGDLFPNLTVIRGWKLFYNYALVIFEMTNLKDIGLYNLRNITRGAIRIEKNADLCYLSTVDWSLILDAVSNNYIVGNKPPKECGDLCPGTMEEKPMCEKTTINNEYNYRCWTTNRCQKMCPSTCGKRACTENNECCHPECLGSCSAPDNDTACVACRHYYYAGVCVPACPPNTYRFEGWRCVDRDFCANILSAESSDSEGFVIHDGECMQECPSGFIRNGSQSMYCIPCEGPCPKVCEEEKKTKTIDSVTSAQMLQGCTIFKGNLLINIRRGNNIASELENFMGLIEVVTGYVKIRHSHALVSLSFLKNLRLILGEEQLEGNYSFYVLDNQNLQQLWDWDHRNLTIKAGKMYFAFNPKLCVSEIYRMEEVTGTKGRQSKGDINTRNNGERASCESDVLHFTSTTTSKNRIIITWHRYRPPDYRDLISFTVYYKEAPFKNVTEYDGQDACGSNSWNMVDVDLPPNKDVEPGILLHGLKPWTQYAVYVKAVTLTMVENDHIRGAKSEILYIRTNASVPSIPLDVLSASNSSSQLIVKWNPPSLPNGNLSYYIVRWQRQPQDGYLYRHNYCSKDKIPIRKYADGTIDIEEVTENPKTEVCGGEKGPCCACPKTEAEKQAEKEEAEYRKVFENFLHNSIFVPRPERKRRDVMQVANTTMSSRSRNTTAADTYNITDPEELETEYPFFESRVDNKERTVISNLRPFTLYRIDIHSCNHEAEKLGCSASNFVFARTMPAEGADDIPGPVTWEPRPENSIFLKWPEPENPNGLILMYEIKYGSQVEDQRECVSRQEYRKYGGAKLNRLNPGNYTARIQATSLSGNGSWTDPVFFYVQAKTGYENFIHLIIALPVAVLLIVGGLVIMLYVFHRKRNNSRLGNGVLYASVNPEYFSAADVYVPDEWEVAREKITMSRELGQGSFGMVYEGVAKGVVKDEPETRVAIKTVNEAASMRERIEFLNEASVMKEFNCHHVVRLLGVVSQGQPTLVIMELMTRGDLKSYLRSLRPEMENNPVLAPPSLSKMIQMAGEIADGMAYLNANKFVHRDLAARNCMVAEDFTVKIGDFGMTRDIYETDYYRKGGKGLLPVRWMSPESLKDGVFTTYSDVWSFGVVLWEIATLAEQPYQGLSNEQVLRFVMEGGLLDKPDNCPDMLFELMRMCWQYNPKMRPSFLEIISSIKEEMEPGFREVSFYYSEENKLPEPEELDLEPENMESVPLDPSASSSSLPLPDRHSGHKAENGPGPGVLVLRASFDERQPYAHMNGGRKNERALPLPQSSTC
From the text: as §1

[24] = target: T24, STK23 (MSSK1) (Homo sapiens, UniProt Q9UPE1)
T24 construct: purchased Thermo Fisher Scientific SelectScreen (plus Nanosyn / Reaction Biology for CDK/cyclin lines)
From the text: as §1

[25] = target: T25, AMPK (A2/B2/G3) (Homo sapiens, UniProt P54646)
T25 construct: purchased Thermo Fisher Scientific SelectScreen (plus Nanosyn / Reaction Biology for CDK/cyclin lines)
From the text: as §1

[26] = target: T26, FRK (PTK5) (Homo sapiens, UniProt P42685)
T26 construct: purchased Thermo Fisher Scientific SelectScreen (plus Nanosyn / Reaction Biology for CDK/cyclin lines)
From the text: as §1

[27] = target: T27, PRKACA (PKA) (Homo sapiens, UniProt P17612)
T27 construct: purchased Thermo Fisher Scientific SelectScreen (plus Nanosyn / Reaction Biology for CDK/cyclin lines)
From the text: as §1

[28] = target: T28, RPS6KA1 (RSK1) (Homo sapiens, UniProt Q15418)
T28 construct: purchased Thermo Fisher Scientific SelectScreen (plus Nanosyn / Reaction Biology for CDK/cyclin lines)
From the text: as §1

[29] = target: T29, MAP3K9 (MLK1) (Homo sapiens, UniProt P80192)
T29 construct: purchased Thermo Fisher Scientific SelectScreen (plus Nanosyn / Reaction Biology for CDK/cyclin lines)
T29 sequence (P80192 whole entry): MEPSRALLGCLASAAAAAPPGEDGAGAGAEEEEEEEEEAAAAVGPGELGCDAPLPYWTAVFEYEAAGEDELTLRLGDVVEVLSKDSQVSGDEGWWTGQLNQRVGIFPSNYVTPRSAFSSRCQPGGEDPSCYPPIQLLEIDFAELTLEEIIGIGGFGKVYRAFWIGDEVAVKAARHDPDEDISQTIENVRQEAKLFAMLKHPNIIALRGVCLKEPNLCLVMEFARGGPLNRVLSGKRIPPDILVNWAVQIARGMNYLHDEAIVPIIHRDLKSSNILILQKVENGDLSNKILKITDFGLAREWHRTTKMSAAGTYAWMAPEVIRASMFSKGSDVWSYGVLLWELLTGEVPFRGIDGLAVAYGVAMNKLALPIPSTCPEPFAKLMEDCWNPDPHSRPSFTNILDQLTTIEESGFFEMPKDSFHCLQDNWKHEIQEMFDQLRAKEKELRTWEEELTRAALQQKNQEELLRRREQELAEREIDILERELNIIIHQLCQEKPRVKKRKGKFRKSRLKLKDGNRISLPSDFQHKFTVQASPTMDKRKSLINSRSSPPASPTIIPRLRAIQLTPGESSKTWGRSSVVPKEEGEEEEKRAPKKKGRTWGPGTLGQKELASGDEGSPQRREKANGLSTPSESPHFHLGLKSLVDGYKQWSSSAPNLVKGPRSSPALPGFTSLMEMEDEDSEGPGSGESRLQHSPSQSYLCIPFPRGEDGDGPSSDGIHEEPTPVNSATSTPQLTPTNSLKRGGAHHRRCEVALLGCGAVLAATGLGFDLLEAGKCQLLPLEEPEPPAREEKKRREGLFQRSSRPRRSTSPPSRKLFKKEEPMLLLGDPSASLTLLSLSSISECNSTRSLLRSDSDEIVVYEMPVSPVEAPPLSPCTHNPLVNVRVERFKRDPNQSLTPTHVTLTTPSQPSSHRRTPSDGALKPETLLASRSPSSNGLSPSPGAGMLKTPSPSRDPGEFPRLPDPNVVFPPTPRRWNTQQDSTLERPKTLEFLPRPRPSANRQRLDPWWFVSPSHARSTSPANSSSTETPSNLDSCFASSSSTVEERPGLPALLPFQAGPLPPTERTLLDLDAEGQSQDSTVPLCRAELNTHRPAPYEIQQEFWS
From the text: as §1

[30] = target: T30, RET V804E (Homo sapiens, UniProt P07949, V804E)
T30 construct: purchased Thermo Fisher Scientific SelectScreen (plus Nanosyn / Reaction Biology for CDK/cyclin lines)
From the text: as §1

[31] = target: T31, MAP2K2 (MEK2) (Homo sapiens, UniProt P36507)
T31 construct: purchased Thermo Fisher Scientific SelectScreen (plus Nanosyn / Reaction Biology for CDK/cyclin lines)
From the text: as §1

[32] = target: T32, EGFR (ErbB1) C797S (Homo sapiens, UniProt P00533, C797S)
T32 construct: purchased Thermo Fisher Scientific SelectScreen (plus Nanosyn / Reaction Biology for CDK/cyclin lines)
From the text: as §1

[33] = target: T33, MST4 (Homo sapiens, UniProt Q9P289)
T33 construct: purchased Thermo Fisher Scientific SelectScreen (plus Nanosyn / Reaction Biology for CDK/cyclin lines)
From the text: as §1

[34] = target: T34, MARK2 (Homo sapiens, UniProt Q7KZI7)
T34 construct: purchased Thermo Fisher Scientific SelectScreen (plus Nanosyn / Reaction Biology for CDK/cyclin lines)
From the text: as §1

[35] = target: T35, DYRK4 (Homo sapiens, UniProt Q9NR20)
T35 construct: purchased Thermo Fisher Scientific SelectScreen (plus Nanosyn / Reaction Biology for CDK/cyclin lines)
T35 sequence (Q9NR20 whole entry): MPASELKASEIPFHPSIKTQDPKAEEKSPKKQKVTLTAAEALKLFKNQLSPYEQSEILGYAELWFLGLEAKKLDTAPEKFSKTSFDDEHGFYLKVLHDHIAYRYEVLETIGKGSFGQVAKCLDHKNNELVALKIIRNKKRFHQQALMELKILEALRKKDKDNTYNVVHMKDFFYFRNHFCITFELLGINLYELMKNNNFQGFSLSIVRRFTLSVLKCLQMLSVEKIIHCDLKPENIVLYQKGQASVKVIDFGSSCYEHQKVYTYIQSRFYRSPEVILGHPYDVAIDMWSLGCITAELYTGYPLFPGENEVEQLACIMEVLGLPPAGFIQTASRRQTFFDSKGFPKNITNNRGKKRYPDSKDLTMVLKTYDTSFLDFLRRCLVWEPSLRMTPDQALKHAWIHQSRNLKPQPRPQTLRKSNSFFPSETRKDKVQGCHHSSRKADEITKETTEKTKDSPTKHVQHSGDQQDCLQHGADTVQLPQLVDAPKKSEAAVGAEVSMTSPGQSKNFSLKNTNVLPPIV
From the text: as §1

[36] = target: T36, RPS6KA3 (RSK2) (Homo sapiens, UniProt P51812)
T36 construct: purchased Thermo Fisher Scientific SelectScreen (plus Nanosyn / Reaction Biology for CDK/cyclin lines)
From the text: as §1

[37] = target: T37, TAOK2 (TAO1) (Homo sapiens, UniProt Q9UL54)
T37 construct: purchased Thermo Fisher Scientific SelectScreen (plus Nanosyn / Reaction Biology for CDK/cyclin lines)
T37 sequence (Q9UL54 whole entry): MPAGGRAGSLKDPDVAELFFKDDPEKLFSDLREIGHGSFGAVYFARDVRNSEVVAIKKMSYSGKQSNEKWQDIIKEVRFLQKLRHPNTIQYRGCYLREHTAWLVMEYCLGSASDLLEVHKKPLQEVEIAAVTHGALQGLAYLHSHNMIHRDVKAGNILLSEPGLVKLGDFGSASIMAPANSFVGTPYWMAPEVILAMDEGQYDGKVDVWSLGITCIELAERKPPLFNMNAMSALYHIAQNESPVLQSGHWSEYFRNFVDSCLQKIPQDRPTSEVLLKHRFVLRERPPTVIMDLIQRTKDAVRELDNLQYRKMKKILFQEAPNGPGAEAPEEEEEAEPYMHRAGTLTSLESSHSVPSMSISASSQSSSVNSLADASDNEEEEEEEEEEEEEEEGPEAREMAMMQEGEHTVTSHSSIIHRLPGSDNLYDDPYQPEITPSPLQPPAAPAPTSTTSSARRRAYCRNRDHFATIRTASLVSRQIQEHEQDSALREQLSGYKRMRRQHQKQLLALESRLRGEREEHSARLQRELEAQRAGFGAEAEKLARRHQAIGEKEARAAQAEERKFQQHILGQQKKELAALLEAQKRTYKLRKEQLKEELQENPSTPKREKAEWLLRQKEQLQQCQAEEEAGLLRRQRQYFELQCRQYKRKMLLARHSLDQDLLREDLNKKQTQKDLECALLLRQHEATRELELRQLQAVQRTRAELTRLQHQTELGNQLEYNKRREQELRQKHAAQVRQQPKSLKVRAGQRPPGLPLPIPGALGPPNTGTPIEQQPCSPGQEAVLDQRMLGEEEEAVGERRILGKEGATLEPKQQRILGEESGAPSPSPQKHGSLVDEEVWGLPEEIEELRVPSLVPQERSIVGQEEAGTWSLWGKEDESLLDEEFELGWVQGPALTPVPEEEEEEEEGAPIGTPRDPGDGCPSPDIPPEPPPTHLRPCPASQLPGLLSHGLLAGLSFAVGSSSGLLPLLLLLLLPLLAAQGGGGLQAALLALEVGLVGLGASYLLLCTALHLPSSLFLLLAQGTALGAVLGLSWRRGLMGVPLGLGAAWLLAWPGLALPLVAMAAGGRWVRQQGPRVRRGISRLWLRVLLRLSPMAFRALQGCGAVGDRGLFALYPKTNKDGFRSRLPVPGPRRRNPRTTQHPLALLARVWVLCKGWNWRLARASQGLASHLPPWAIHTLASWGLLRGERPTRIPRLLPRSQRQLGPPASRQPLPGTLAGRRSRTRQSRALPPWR
From the text: as §1

Question: NS(=O)(=O)c1ccc(Nc2ncc3cc4n(c3n2)C2(CCCCC2)C(=O)NN4)cc1 [INX-315] was tested. Which inhibition at 0.1 µM [1] did it give?
Answer: 6%

Question: And the inhibition at 0.1 µM [2]?
Answer: 53%

Question: And the inhibition at 0.1 µM [3]?
Answer: 11%

Question: And the inhibition at 0.1 µM [4]?
Answer: 78%

Question: And the inhibition at 0.1 µM [5]?
Answer: 58%

Question: And the inhibition at 0.1 µM [6]?
Answer: 3%

Question: What about the inhibition at 0.1 µM [7] of the same compound?
Answer: 7%

Question: What about the inhibition at 0.1 µM [8] of the same compound?
Answer: 15%

Question: And the inhibition at 0.1 µM [9]?
Answer: 25%

Question: What about the inhibition at 0.1 µM [10] of the same compound?
Answer: 4%

Question: And the inhibition at 0.1 µM [11]?
Answer: -1%

Question: And the inhibition at 0.1 µM [12]?
Answer: 20%

Question: And the inhibition at 0.1 µM [13]?
Answer: 3%

Question: What about the inhibition at 0.1 µM [14] of the same compound?
Answer: 8%

Question: What about the inhibition at 0.1 µM [15] of the same compound?
Answer: 2%

Question: What about the inhibition at 0.1 µM [16] of the same compound?
Answer: 6%

Question: And the inhibition at 0.1 µM [17]?
Answer: 17%

Question: What about the inhibition at 0.1 µM [18] of the same compound?
Answer: -2%

Question: What about the inhibition at 0.1 µM [19] of the same compound?
Answer: 6%

Question: And the inhibition at 0.1 µM [20]?
Answer: 23%

Question: What about the inhibition at 0.1 µM [21] of the same compound?
Answer: 1%

Question: And the inhibition at 0.1 µM [22]?
Answer: 11%

Question: And the inhibition at 0.1 µM [23]?
Answer: 9%

Question: What about the inhibition at 0.1 µM [24] of the same compound?
Answer: 6%

Question: And the inhibition at 0.1 µM [25]?
Answer: 32%

Question: And the inhibition at 0.1 µM [26]?
Answer: 7%

Question: And the inhibition at 0.1 µM [27]?
Answer: 4%

Question: What about the inhibition at 0.1 µM [28] of the same compound?
Answer: 47%

Question: What about the inhibition at 0.1 µM [29] of the same compound?
Answer: 22%

Question: What about the inhibition at 0.1 µM [30] of the same compound?
Answer: 13%

Question: What about the inhibition at 0.1 µM [31] of the same compound?
Answer: 17%

Question: What about the inhibition at 0.1 µM [32] of the same compound?
Answer: -8%

Question: And the inhibition at 0.1 µM [33]?
Answer: -4%

Question: And the inhibition at 0.1 µM [34]?
Answer: 9%

Question: What about the inhibition at 0.1 µM [35] of the same compound?
Answer: 3%

Question: What about the inhibition at 0.1 µM [36] of the same compound?
Answer: 27%

Question: What about the inhibition at 0.1 µM [37] of the same compound?
Answer: 10%

Reference: article PMC10905675, “INX-315, a Selective CDK2 Inhibitor, Induces Cell Cycle Arrest and Senescence in Solid Tumors” (Cancer Discovery, 2023)
